Assay results from patent US20260337225A1, “SMALL PEPTIDE AND USE THEREOF IN MUCOSAL REPAIR” (FORREST BIO-PHARM (SHENZHEN) CO., LTD., priority 2022, published 2026).
“And” between values parts separate entries of the source, which are not always exact repeats. Equal entries are not always repeated. No end group written: not given here.

Columns and labels:
mucosal repair = experiment: Screening of active monomers for mucosal repair effects; details: repeated experiments and screening; in words
Source text: The inventors observed the active monomers in the polypeptide mixture of Polimi-1 rice variety by mass spectrometry analysis of the polypeptides from various ordinary rice varieties and Polimi-1 rice variety. The small peptides identical to ordinary rice varieties and with high levels in ordinary rice varieties were excluded by a method of exclusion. Finally, the small peptides with higher levels in Polimi-1 rice variety and lower levels in other ordinary rice varieties were selected for further study, as well as those with higher levels in Polimi-1 rice variety and absent in other ordinary rice varieties. Since peptides with molecular weights below 1500 Daltons were extracted from the mixed polypeptide mixture previously obtained, other peptides above this threshold were excluded.

[1] = system: normal human hepatic parenchymal L-02 cells; experiment: Hepatotoxicity: cytotoxicity in L-02 cells by CCK-8 assay; type: cell-based; details: 10-200 μg/mL, 24 h, in words
Experimental: Referring to the method from a literature (Determination of emodin in L-02 cells and cell culture media with liquid chromatography-mass spectrometry: Application to a cellular toxicokinetic study. J Pharm Biomed Anal. 2012; 71:71-78), normal human hepatic parenchymal L-02 cells (obtained from Shanghai Cell Bank) were seeded into 96-well plates and treated with small peptides P1 and P2 at concentrations of 0 μg/mL, 10 μg/mL, 20 μg/mL, 50 μg/mL, 100 μg/mL, and 200 μg/mL. After 24-hour stimulation, the cytotoxicity was assessed by Cell Counting Kit-8 (CCK-8) assay.

[2] = system: normal human kidney-2 cells (HK-02, HK-2); experiment: Nephrotoxicity: cytotoxicity in HK-2 cells by CCK-8 assay; type: cell-based; details: 10-200 μg/mL, 24 h, in words
Experimental: Referring to the method from a literature (Sinomenine improve diabetic nephropathy by inhibiting fibrosis and regulating the JAK2/STAT3/SOCS1 pathway in streptozotocin-induced diabetic rats. Life Sci. 2021; 265:118855), normal human kidney-2 cells (HK-02, HK-2) (Shanghai Cell Bank) were seeded into 96-well plates and administered with small peptides P1 and P2 at concentrations of 0 μg/mL, 10 μg/mL, 20 μg/mL, 50 μg/mL, 100 μg/mL, and 200 μg/mL. After 24-hour stimulation, the cytotoxicity was assessed by Cell Counting Kit-8 (CCK-8) assay.

Rat kidney = experiment: Animal safety observation: rat kidney injury (serum blood urea nitrogen levels); type: in vivo; details: 14 days; for Blood Urea Nitrogen Levels: intragastric gavage, rat serum, individual rats (Rat 1-6)
Experimental: (§1) The rats were administered with the small peptides via intragastric gavage at doses of 500 mg/kg and 1000 mg/kg daily for 14 days. Changes in body weight were recorded. On day 14, the rats were sacrificed to measure alaninetransaminase (ALT) activity and blood urea nitrogen (BUN) levels in rat serum for assessing whether there was hepatotoxicity and nephrotoxicity in rats.

[3] = system: mouse model of acute gastric ulcer; experiment: Mouse model of acute gastric ulcer (anhydrous ethanol); type: in vivo
Experimental: In this embodiment, the function of the small peptides obtained in Embodiment 2 was validated using a mouse model of acute gastric ulcer.
Control group (model group): A mouse mode of acute gastric ulcer was constructed using anhydrous ethanol (0.1 mL/10 g) (referring to the literature of Study on Action of kangfuxin Solution on Experimental Gastric ulcer [J]. Chinese Traditional Patent Medicine, 2001, 23(2): 122-124. DOI: 10.3969/j.issn.1001-1528.). After modeling, the mice were administered with an equal volume of saline.
Blank group: The mice were administered with an equal volume of saline.
Drug treatment groups: A mouse mode of acute gastric ulcer was constructed by treating the mouse with anhydrous ethanol (0.1 mL/10 g). At 2 h, 12 h, and 22 h after modeling, the mice were administered with the rice polypeptide mixture (50 mg/kg) as the mixture group, small peptide P1 (0.5 mg/kg) as the P1 group, and small peptide P2 (0.5 mg/kg) as the P2 group, respectively.
Each group consisted of 8 mice. After 24 h of modeling, the mice were sacrificed, to extract the gastric tissue, and observe changes in bleeding points and ulcer area via gastric tissue dissection.

[4] = system: rat model of chronic gastric ulcer; experiment: Rat model of chronic gastric ulcer (anhydrous ethanol followed by aspirin); type: in vivo
Experimental: The function of the small peptides obtained in Embodiment 2 was validated in the present embodiment by using a rat model of chronic gastric ulcer.
Control group (model group): A rat model of chronic gastric ulcer model was constructed by intragastric administration of anhydrous ethanol (1 mL/200 g), followed by intragastric administration of 200 mg/kg aspirin 2 h later. The rats were administered with aspirin once daily for 4 days. At day 5, the rats were administered with an equal volume of saline.
Blank group: The rats were administered with an equal volume of saline.
Drug treatment groups: A rat model of chronic gastric ulcer was constructed as above-mentioned. At day 5, the rats were respectively administered with the rice polypeptide mixture (50 mg/kg), small peptide P1 (0.5 mg/kg), or small peptide P2 (0.5 mg/kg) twice daily for 3 days. On day 4, the rats were sacrificed and their gastric necropsy was performed.
Positive control group (omeprazole 2.6 mg/kg): A rat model of chronic gastric ulcer was constructed as above. At day 5, the rats were administered with omeprazole (2.6 mg/kg) twice daily for 3 days. On day 4, The rats were sacrificed and their gastric necropsy was performed.
Each group consisted of 10 rats. After 24 h of modeling, the rats were sacrificed to extract the gastric tissue, for measuring gastric pH, and observing changes in ulcer area via gastric tissue dissection. Liver and kidney tissues were collected for pathological section observation to assess drug safety.

Rat liver = experiment: Animal safety observation: rat liver injury (serum alaninetransaminase activity); type: in vivo; details: 14 days; for Alaninetransaminase Activity, Average / Alaninetransaminase Activity: intragastric gavage, rat serum; for Alaninetransaminase Activity, Average: average of 6 rats, saline average P1 35.83333, P2 30.83333; for Alaninetransaminase Activity: individual rats (Rat 1-6)
Experimental: as §1

[5] = Animal safety observation: rat body weight; type: in vivo; details: for Rat body weight: 1000 mg/kg daily, intragastric gavage, individual rats, Rat 1-7 = c1-c7, 1000 mg/kg
Experimental: as §1

[6] = 500 and 1000 mg/kg daily, rats, in words

Sequence: GPSGPELRG [Small peptide P2, GPSGPELRG]
- mucosal repair effects (mucosal repair): found to have mucosal repair effects
- viability of normal human liver cells L-02 [1]: no effect
- hepatotoxicity ([1]; L-02 cells): no hepatotoxicity
- viability of normal human kidney cells HK-02 (HK-2) [2]: no effect
- nephrotoxicity ([2]; HK-2 cells): no nephrotoxicity
- Blood Urea Nitrogen Levels (Rat kidney; 500 mg/kg daily): 19 mg/dL and 37 mg/dL and 32 mg/dL and 34 mg/dL and 42 mg/dL and 33 mg/dL
- Blood Urea Nitrogen Levels (Rat kidney; 1000 mg/kg daily): 23 mg/dL and 29 mg/dL and 35 mg/dL and 39 mg/dL and 43 mg/dL and 44 mg/dL
- nephrotoxicity (Rat kidney; [6]): without hepatotoxicity and nephrotoxicity
- Ulcer index ([3]; 0.5 mg/kg at 2 h, 12 h and 22 h after modeling, 8 mice, ratio of ulcer area to gastric mucosal tissue area, Control group 58.3 ± 10.1): 7.1 ± 5.5%
- Ulcer inhibition rate ([3]; 0.5 mg/kg at 2 h, 12 h and 22 h after modeling, percentage reduction in ulcer area compared to the Control group): 87.8%
- result compared to the mixture group ([3]; 0.5 mg/kg versus mixture 50 mg/kg, in words): better results than the mixture in larger dose
- anti-ulcer effects ([3]; 0.5 mg/kg, in words): excellent anti-ulcer effects
- Ulcer index ([4]; 0.5 mg/kg twice daily for 3 days, 10 rats, ratio of ulcer area to gastric mucosal tissue area, Control group 40.5 ± 5.3): 5.5 ± 3.7%
- Ulcer inhibition rate ([4]; 0.5 mg/kg twice daily for 3 days, percentage reduction in ulcer area compared to the Control group): 86.4%
- anti-ulcer effects ([4]; P1, P2 0.5 mg/kg, mixture 50 mg/kg, in words): exhibit anti-ulcer effects
- P versus Positive control group ([4]; anti-ulcer effects compared to omeprazole 2.6 mg/kg, P1, P2 0.5 mg/kg, mixture 50 mg/kg): > 0.05
- Alaninetransaminase Activity, Average (Rat liver; 500 mg/kg daily): 29.33 IU/L
- Alaninetransaminase Activity (Rat liver; 500 mg/kg daily): 34 IU/L (2×) and 42 IU/L and 17 IU/L and 21 IU/L and 28 IU/L
- Alaninetransaminase Activity, Average (Rat liver; 1000 mg/kg daily): 36.67 IU/L
- Alaninetransaminase Activity (Rat liver; 1000 mg/kg daily): 29 IU/L and 43 IU/L and 45 IU/L and 33 IU/L and 32 IU/L and 38 IU/L
- hepatotoxicity (Rat liver; [6]): without hepatotoxicity
- Rat body weight ([5]; Day 1): 208 g and 215 g and 219 g and 218 g and 217 g (2×) and 214 g
- Rat body weight ([5]; Day 2): 210 g and 216 g (2×) and 220 g and 221 g and 223 g and 218 g
- Rat body weight ([5]; Day 3): 211 g and 220 g and 221 g and 222 g and 225 g and 210 g and 219 g
- Rat body weight ([5]; Day 4): 213 g and 224 g
- Rat body weight ([5]; Day 5): 214 g and 225 g (2×) and 229 g (2×) and 221 g and 226 g
- Rat body weight ([5]; Day 6): 214 g and 226 g and 225 g and 231 g and 230 g and 224 g and 229 g
- Rat body weight ([5]; Day 7): 215 g and 226 g and 230 g (2×) and 237 g and 232 g and 225 g
- Rat body weight ([5]; Day 8): 216 g and 229 g (2×) and 233 g and 236 g and 234 g and 232 g
- Rat body weight ([5]; Day 9): 221 g and 230 g and 235 g (2×) and 239 g and 234 g and 231 g
- Rat body weight ([5]; Day 10): 224 g and 231 g and 238 g and 240 g and 239 g and 235 g and 237 g
- Rat body weight ([5]; Day 11): 225 g and 234 g and 239 g and 242 g (2×) and 238 g and 240 g
- Rat body weight ([5]; Day 12): 230 g and 235 g and 239 g and 244 g (2×) and 245 g and 240 g
- Rat body weight ([5]; Day 13): 231 g and 238 g and 240 g and 245 g (2×) and 249 g and 241 g
- Rat body weight ([5]; Day 14): 235 g and 239 g and 241 g and 248 g and 250 g and 244 g (2×)
- Rat body weight ([5]; Day 15): 238 g and 241 g and 242 g and 250 g and 252 g and 245 g (2×)
- effects on rat body weight ([5]; daily intragastric gavage for 14 days, in words): minimal effects
